# Measurements from PubChem BioAssay AID2060487 (Molecular Pharmacology Branch, DTP, NCI, 2025).
# Tested on: 997537-175-T-J1-PDC complex spheroid viability
# Experiment: Anticancer human tumor 997537-175-T-J1-PDC patient-derived colon adenocarcinoma cell line growth inhibition [GQUAD]
# Settings: for IC50: curve of first compound; for viability, T/C: stronger effect = lower value
# Method in brief: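 Viability of tumor cells grown as complex spheroids with endothelial and stromal cells, exposed to drug combinations. Top concentration at or near clinical Cmax (else 10 microM), diluted in half-log increments.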
# [1] = second compound 0.0316 µM, first compound 0.0316 µM
# [2] = second compound 0.0316 µM, first compound 0.1 µM
# [3] = second compound 0.0316 µM, first compound 0.316 µM
# [4] = second compound 0.0316 µM, first compound 1 µM
# [5] = second compound 0.0316 µM, first compound 3.16 µM
# [6] = second compound 0.0316 µM, first compound 10 µM
# [7] = second compound 0.1 µM, first compound 0.0316 µM
# [8] = second compound 0.1 µM, first compound 0.1 µM
# [9] = second compound 0.1 µM, first compound 0.316 µM
# [10] = second compound 0.1 µM, first compound 1 µM
# [11] = second compound 0.1 µM, first compound 3.16 µM
# [12] = second compound 0.1 µM, first compound 10 µM
# [13] = second compound 0.316 µM, first compound 0.0316 µM
# [14] = second compound 0.316 µM, first compound 0.1 µM
# [15] = second compound 0.316 µM, first compound 0.316 µM
# [16] = second compound 0.316 µM, first compound 1 µM
# [17] = second compound 0.316 µM, first compound 3.16 µM
# [18] = second compound 0.316 µM, first compound 10 µM
# [19] = second compound 1 µM, first compound 0.0316 µM
# [20] = second compound 1 µM, first compound 0.1 µM
# [21] = second compound 1 µM, first compound 0.316 µM
# [22] = second compound 1 µM, first compound 1 µM
# [23] = second compound 1 µM, first compound 3.16 µM
# [24] = second compound 1 µM, first compound 10 µM
# [25] = second compound 3.16 µM, first compound 0.0316 µM
# [26] = second compound 3.16 µM, first compound 0.1 µM
# [27] = second compound 3.16 µM, first compound 0.316 µM
# [28] = second compound 3.16 µM, first compound 1 µM
# [29] = second compound 3.16 µM, first compound 3.16 µM
# [30] = second compound 3.16 µM, first compound 10 µM
# [31] = second compound 10 µM, first compound 0.0316 µM
# [32] = second compound 10 µM, first compound 0.1 µM
# [33] = second compound 10 µM, first compound 0.316 µM
# [34] = second compound 10 µM, first compound 1 µM
# [35] = second compound 10 µM, first compound 3.16 µM
# [36] = second compound 10 µM, first compound 10 µM
# 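Further: spheroids exposed to the agents for 7 days.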
# 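Wherever viability, T/C is given: 100% = DMSO vehicle control viability.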
smiles,measurement,setting,value
C=CC(=O)N1CCN(c2nc(=O)n(-c3c(C)ccnc3C(C)C)c3nc(-c4c(O)cccc4F)c(F)cc23)C(C)C1 (stereo unspecified) + Cc1[nH]c2ccc(F)cc2c1-c1nc2c3cccnc3c3ncccc3c2[nH]1,IC50,second compound 0.0316 µM,> 10 µM
same,IC50,second compound 0.1 µM,> 10 µM
same,IC50,second compound 0.316 µM,> 10 µM
same,IC50,second compound 1 µM,> 10 µM
same,IC50,second compound 3.16 µM,> 10 µM
same,IC50,second compound 10 µM,> 10 µM
same,"viability, T/C",[1],102%
same,"viability, T/C",[2],89.9%
same,"viability, T/C",[3],86.2%
same,"viability, T/C",[4],92.5%
same,"viability, T/C",[5],91.7%
same,"viability, T/C",[6],97.5%
same,"viability, T/C",[7],91.1%
same,"viability, T/C",[8],71.1%
same,"viability, T/C",[9],87.9%
same,"viability, T/C",[10],75.4%
same,"viability, T/C",[11],101%
same,"viability, T/C",[12],92%
same,"viability, T/C",[13],92.4%
same,"viability, T/C",[14],65.8%
same,"viability, T/C",[15],74.8%
same,"viability, T/C",[16],85.9%
same,"viability, T/C",[17],95.3%
same,"viability, T/C",[18],96.5%
same,"viability, T/C",[19],92.8%
same,"viability, T/C",[20],89.9%
same,"viability, T/C",[21],87.9%
same,"viability, T/C",[22],83.2%
same,"viability, T/C",[23],90.2%
same,"viability, T/C",[24],97.6%
same,"viability, T/C",[25],80.7%
same,"viability, T/C",[26],72.5%
same,"viability, T/C",[27],74.3%
same,"viability, T/C",[28],89%
same,"viability, T/C",[29],100%
same,"viability, T/C",[30],80%
same,"viability, T/C",[31],82.3%
same,"viability, T/C",[32],75.8%
same,"viability, T/C",[33],87.3%
same,"viability, T/C",[34],69.8%
same,"viability, T/C",[35],79.3%
same,"viability, T/C",[36],84.3%
CC(C)n1c(=O)n(C)c2cnc3cc(F)c(-c4ccc(OCCCN5CCCCC5)nc4)cc3c21 + Cc1[nH]c2ccc(F)cc2c1-c1nc2c3cccnc3c3ncccc3c2[nH]1,IC50,second compound 0.0316 µM,> 10 µM
same,IC50,second compound 0.1 µM,> 10 µM
same,IC50,second compound 0.316 µM,> 10 µM
same,IC50,second compound 1 µM,> 10 µM
same,IC50,second compound 3.16 µM,> 10 µM
same,IC50,second compound 10 µM,> 10 µM
same,"viability, T/C",[1],117%
same,"viability, T/C",[2],104%
same,"viability, T/C",[3],112%
same,"viability, T/C",[4],98.2%
same,"viability, T/C",[5],113%
same,"viability, T/C",[6],106%
same,"viability, T/C",[7],121%
same,"viability, T/C",[8],97.6%
same,"viability, T/C",[9],97.6%
same,"viability, T/C",[10],95.6%
same,"viability, T/C",[11],108%
same,"viability, T/C",[12],99.9%
same,"viability, T/C",[13],94.2%
same,"viability, T/C",[14],103%
same,"viability, T/C",[15],88.8%
same,"viability, T/C",[16],77.9%
same,"viability, T/C",[17],116%
same,"viability, T/C",[18],84%
same,"viability, T/C",[19],86.4%
same,"viability, T/C",[20],109%
same,"viability, T/C",[21],91.1%
same,"viability, T/C",[22],107%
same,"viability, T/C",[23],112%
same,"viability, T/C",[24],98.8%
same,"viability, T/C",[25],89.3%
same,"viability, T/C",[26],100%
same,"viability, T/C",[27],100%
same,"viability, T/C",[28],93.2%
same,"viability, T/C",[29],98.2%
same,"viability, T/C",[30],90.5%
same,"viability, T/C",[31],81.5%
same,"viability, T/C",[32],79.9%
same,"viability, T/C",[33],95.7%
same,"viability, T/C",[34],79.9%
same,"viability, T/C",[35],88.9%
same,"viability, T/C",[36],72.5%
CC[C@@]1(O)C(=O)OCc2c1cc1n(c2=O)Cc2cc3c(CN(C)C)c(O)ccc3nc2-1 + Cc1[nH]c2ccc(F)cc2c1-c1nc2c3cccnc3c3ncccc3c2[nH]1,IC50,second compound 0.0316 µM,> 0.316 µM
same,IC50,second compound 0.1 µM,> 0.316 µM
same,IC50,second compound 0.316 µM,> 0.316 µM
same,IC50,second compound 1 µM,> 0.316 µM
same,IC50,second compound 3.16 µM,> 0.316 µM
same,IC50,second compound 10 µM,> 0.316 µM
same,"viability, T/C","second compound 0.0316 µM, first compound 0.000999 µM",97.8%
same,"viability, T/C","second compound 0.0316 µM, first compound 0.00316 µM",91.4%
same,"viability, T/C","second compound 0.0316 µM, first compound 0.00999 µM",99.2%
same,"viability, T/C",[1],86.7%
same,"viability, T/C","second compound 0.0316 µM, first compound 0.0999 µM",90.6%
same,"viability, T/C",[3],55.9%
same,"viability, T/C","second compound 0.1 µM, first compound 0.000999 µM",92%
same,"viability, T/C","second compound 0.1 µM, first compound 0.00316 µM",89.1%
same,"viability, T/C","second compound 0.1 µM, first compound 0.00999 µM",75.6%
same,"viability, T/C",[7],82.8%
same,"viability, T/C","second compound 0.1 µM, first compound 0.0999 µM",61.2%
same,"viability, T/C",[9],54.7%
same,"viability, T/C","second compound 0.316 µM, first compound 0.000999 µM",85.9%
same,"viability, T/C","second compound 0.316 µM, first compound 0.00316 µM",72.1%
same,"viability, T/C","second compound 0.316 µM, first compound 0.00999 µM",81.3%
same,"viability, T/C",[13],97%
same,"viability, T/C","second compound 0.316 µM, first compound 0.0999 µM",85.5%
same,"viability, T/C",[15],55.1%
same,"viability, T/C","second compound 1 µM, first compound 0.000999 µM",80.8%
same,"viability, T/C","second compound 1 µM, first compound 0.00316 µM",59.6%
same,"viability, T/C","second compound 1 µM, first compound 0.00999 µM",85.8%
same,"viability, T/C",[19],93%
same,"viability, T/C","second compound 1 µM, first compound 0.0999 µM",80.2%
same,"viability, T/C",[21],62.6%
same,"viability, T/C","second compound 3.16 µM, first compound 0.000999 µM",51.4%
same,"viability, T/C","second compound 3.16 µM, first compound 0.00316 µM",82.8%
same,"viability, T/C","second compound 3.16 µM, first compound 0.00999 µM",61%
same,"viability, T/C",[25],51.2%
same,"viability, T/C","second compound 3.16 µM, first compound 0.0999 µM",90.5%
same,"viability, T/C",[27],70.8%
same,"viability, T/C","second compound 10 µM, first compound 0.000999 µM",71.8%
same,"viability, T/C","second compound 10 µM, first compound 0.00316 µM",82.4%
same,"viability, T/C","second compound 10 µM, first compound 0.00999 µM",77.3%
same,"viability, T/C",[31],62.2%
same,"viability, T/C","second compound 10 µM, first compound 0.0999 µM",62.9%
same,"viability, T/C",[33],58.9%
